# Laboratory results as given in publication PMC6979384, “Characterization of the plant homeodomain (PHD) reader family for their histone tail interactions” (Epigenetics & Chromatin, 2020).
# How the values were obtained:
# Assay in all cases: Histone peptide microarray
# Assay type in all cases: binding, human
# [1] = test system: MORC3 (CW); details: GST-tagged MORC3 (CW = CW-type Zn-finger), sheet Array Heatmap, each array performed twice, total n = 4
# How it was run: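 Purified PHD finger domains fused to GST are screened against 293 synthetic histone peptides bearing one or several post-translational modifications. The protein is used at 0.5 μM, and the signal from four replicate arrays is averaged, with standard deviation given.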
# [2] = test system: KDM7A; details: GST-tagged KDM7A, sheet Array Heatmap, each array performed twice, total n = 4
# How it was run: (§1)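 A peptide microarray holding 293 synthetic histone peptides with individual or combinatorial modifications was probed with each GST-PHD protein at 0.5 μM. Values represent mean intensity (±SD) from four replicates.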
# [3] = test system: KDM5B (3); details: GST-tagged KDM5B (3), sheet Array Heatmap, each array performed twice, total n = 4
# How it was run: as §1
# [4] = test system: AIRE (PP); details: GST-tagged AIRE (PP), sheet Array Heatmap, each array performed twice, total n = 4
# How it was run: as §1
# [5] = test system: KDM5A (3); details: GST-tagged KDM5A (3), sheet Array Heatmap, each array performed twice, total n = 4
# How it was run: as §1
# [6] = test system: ING3; details: GST-tagged ING3, sheet Array Heatmap, each array performed twice, total n = 4
# How it was run: as §1
# [7] = test system: CHD4 (PPCC); details: for Array Heatmap signal (histone peptide microarray): GST-tagged CHD4 (PPCC = Dual PHD + Dual Chromodomain), sheet Array Heatmap, each array performed twice, total n = 4
# How it was run: as §1
# [8] = test system: TAF3; details: GST-tagged TAF3, sheet Array Heatmap, each array performed twice, total n = 4
# How it was run: as §1
# [9] = test system: KDM5B (1); details: GST-tagged KDM5B (1), sheet Array Heatmap, each array performed twice, total n = 4
# How it was run: as §1
# [10] = test system: PHF21A; details: GST-tagged PHF21A, sheet Array Heatmap, each array performed twice, total n = 4
# How it was run: as §1
# [11] = test system: SP140L; details: GST-tagged SP140L, sheet Array Heatmap, each array performed twice, total n = 4
# How it was run: as §1
# [12] = test system: CHD5 (PCC); details: GST-tagged CHD5 (PCC = PHD + Dual Chromodomain), sheet Array Heatmap, each array performed twice, total n = 4
# How it was run: as §1
# [13] = test system: PHF2; details: GST-tagged PHF2, sheet Array Heatmap, each array performed twice, total n = 4
# How it was run: as §1
# [14] = test system: DPF2 (PPC2W2); details: GST-tagged DPF2 (PPC2W2 = Dual PHD + C2W2-type Zn-finger), sheet Array Heatmap, each array performed twice, total n = 4
# How it was run: as §1
# [15] = test system: ING1; details: GST-tagged ING1, sheet Array Heatmap, each array performed twice, total n = 4
# How it was run: as §1
# [16] = test system: ING4; details: GST-tagged ING4, sheet Array Heatmap, each array performed twice, total n = 4
# How it was run: as §1
# [17] = test system: RAG2; details: GST-tagged RAG2, sheet Array Heatmap, each array performed twice, total n = 4
# How it was run: as §1
# [18] = test system: CHD5 (PPCC); details: GST-tagged CHD5 (PPCC = Dual PHD + Dual Chromodomain), sheet Array Heatmap, each array performed twice, total n = 4
# How it was run: as §1
# [19] = test system: KDM4C (TTP); details: GST-tagged KDM4C (TTP = Tandem Tudor domain + PHD), sheet Array Heatmap, each array performed twice, total n = 4
# How it was run: as §1
# [20] = test system: PHF13; details: GST-tagged PHF13, sheet Array Heatmap, each array performed twice, total n = 4
# How it was run: as §1
# [21] = test system: PHF23; details: GST-tagged PHF23, sheet Array Heatmap, each array performed twice, total n = 4
# How it was run: as §1
# [22] = test system: BAZ2B; details: GST-tagged BAZ2B, sheet Array Heatmap, each array performed twice, total n = 4
# How it was run: as §1
# [23] = test system: BPTF (PB); details: GST-tagged BPTF (PB = PHD + Bromodomain), sheet Array Heatmap, each array performed twice, total n = 4
# How it was run: as §1
# [24] = test system: ING5; details: GST-tagged ING5, sheet Array Heatmap, each array performed twice, total n = 4
# How it was run: as §1
# [25] = test system: DIDO1; details: GST-tagged DIDO1, sheet Array Heatmap, each array performed twice, total n = 4
# How it was run: as §1
# [26] = test system: PHF8; details: GST-tagged PHF8, sheet Array Heatmap, each array performed twice, total n = 4
# How it was run: as §1
substance,measurement,setting,value
H3K9ac: H3 1-20 [Peptide H3K9ac],Array Heatmap signal (histone peptide microarray),[1]; listed as 2,0.5166
same,Array Heatmap signal (histone peptide microarray),[1]; listed as 3,0.5177
same,Array Heatmap signal (histone peptide microarray),[2]; listed as 2,0.303
same,Array Heatmap signal (histone peptide microarray),[2]; listed as 3,0.3051
same,Array Heatmap signal (histone peptide microarray),[3]; listed as 2,0.5795
same,Array Heatmap signal (histone peptide microarray),[3]; listed as 3,0.5654
same,Array Heatmap signal (histone peptide microarray),[4]; listed as 2,0.4059
same,Array Heatmap signal (histone peptide microarray),[4]; listed as 3,0.3893
same,Array Heatmap signal (histone peptide microarray),[5]; listed as 2,0.6003
same,Array Heatmap signal (histone peptide microarray),[5]; listed as 3,0.6283
same,Array Heatmap signal (histone peptide microarray),[6]; listed as 2,0.4489
same,Array Heatmap signal (histone peptide microarray),[6]; listed as 3,0.4338
same,Array Heatmap signal (histone peptide microarray),[7]; listed as 2,0.6247
same,Array Heatmap signal (histone peptide microarray),[7]; listed as 3,0.6748
same,relative binding,"[7]; peptide microarray, reader 0.5 μM, n = 4",increased binding
same,Array Heatmap signal (histone peptide microarray),[8]; listed as 2,0.3565
same,Array Heatmap signal (histone peptide microarray),[8]; listed as 3,0.3052
same,Array Heatmap signal (histone peptide microarray),[9]; listed as 2,0.6899
same,Array Heatmap signal (histone peptide microarray),[9]; listed as 3,0.6761
same,Array Heatmap signal (histone peptide microarray),[10]; listed as 2,0.4621
same,Array Heatmap signal (histone peptide microarray),[10]; listed as 3,0.47
same,Array Heatmap signal (histone peptide microarray),[11]; listed as 2,0.3674
same,Array Heatmap signal (histone peptide microarray),[11]; listed as 3,0.3745
same,Array Heatmap signal (histone peptide microarray),[12]; listed as 2,0.8342
same,Array Heatmap signal (histone peptide microarray),[12]; listed as 3,0.7526
same,Array Heatmap signal (histone peptide microarray),[13]; listed as 2,0.6188
same,Array Heatmap signal (histone peptide microarray),[13]; listed as 3,0.5837
same,Array Heatmap signal (histone peptide microarray),[14]; listed as 2,0.7428
same,Array Heatmap signal (histone peptide microarray),[14]; listed as 3,0.7589
same,Array Heatmap signal (histone peptide microarray),[15]; listed as 2,0.5257
same,Array Heatmap signal (histone peptide microarray),[15]; listed as 3,0.5645
same,Array Heatmap signal (histone peptide microarray),[16]; listed as 2,0.4346
same,Array Heatmap signal (histone peptide microarray),[16]; listed as 3,0.4319
same,Array Heatmap signal (histone peptide microarray),[17]; listed as 2,0.3184
same,Array Heatmap signal (histone peptide microarray),[17]; listed as 3,0.2998
same,Array Heatmap signal (histone peptide microarray),[18]; listed as 2,0.5875
same,Array Heatmap signal (histone peptide microarray),[18]; listed as 3,0.5535
same,Array Heatmap signal (histone peptide microarray),[19]; listed as 2,0.4318
same,Array Heatmap signal (histone peptide microarray),[19]; listed as 3,0.4332
same,Array Heatmap signal (histone peptide microarray),[20]; listed as 2,0.5811
same,Array Heatmap signal (histone peptide microarray),[20]; listed as 3,0.5738
same,Array Heatmap signal (histone peptide microarray),[21]; listed as 2,0.5351
same,Array Heatmap signal (histone peptide microarray),[21]; listed as 3,0.5457
same,Array Heatmap signal (histone peptide microarray),[22]; listed as 2,0.4731
same,Array Heatmap signal (histone peptide microarray),[22]; listed as 3,0.4634
same,Array Heatmap signal (histone peptide microarray),[23]; listed as 2,0.3339
same,Array Heatmap signal (histone peptide microarray),[23]; listed as 3,0.3268
same,Array Heatmap signal (histone peptide microarray),[24]; listed as 2,0.3289
same,Array Heatmap signal (histone peptide microarray),[24]; listed as 3,0.3311
same,Array Heatmap signal (histone peptide microarray),[25]; listed as 2,0.6642
same,Array Heatmap signal (histone peptide microarray),[25]; listed as 3,0.7409
same,Array Heatmap signal (histone peptide microarray),[26]; listed as 2,0.3437
same,Array Heatmap signal (histone peptide microarray),[26]; listed as 3,0.3517
